Experimental data: ChEMBL document CHEMBL1909046, “DrugMatrix in vitro pharmacology data”

Experiments:
Adenosine receptor A3 = target: T1, Adenosine receptor A3 (Homo sapiens, UniProt P0DMS8); assay type: cell membranes, CHO-K1, Membrane; conditions: cho-k1;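 further: radioligand binding assay with AB-MECA serving as the labeled ligand; in other assays of this panel Not Active means under 50% inhibition at 10 µM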
T1 sequence (P0DMS8 whole entry): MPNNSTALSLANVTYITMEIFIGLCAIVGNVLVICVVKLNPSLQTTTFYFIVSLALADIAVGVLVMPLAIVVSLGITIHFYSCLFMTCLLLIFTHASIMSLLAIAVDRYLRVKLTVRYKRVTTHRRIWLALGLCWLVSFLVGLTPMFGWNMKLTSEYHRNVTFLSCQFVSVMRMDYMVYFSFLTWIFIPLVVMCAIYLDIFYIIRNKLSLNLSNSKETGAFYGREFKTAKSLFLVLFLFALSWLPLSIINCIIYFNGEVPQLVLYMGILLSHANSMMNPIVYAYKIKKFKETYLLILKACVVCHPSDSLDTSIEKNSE

[1] = target: C-C chemokine receptor type 5 (Homo sapiens, UniProt P51681); assay type: cell membranes, Membrane; conditions: hek293; further: in other assays of this panel Not Active means under 50% inhibition at 10 µM
Sequence of C-C chemokine receptor type 5 (P51681 whole entry): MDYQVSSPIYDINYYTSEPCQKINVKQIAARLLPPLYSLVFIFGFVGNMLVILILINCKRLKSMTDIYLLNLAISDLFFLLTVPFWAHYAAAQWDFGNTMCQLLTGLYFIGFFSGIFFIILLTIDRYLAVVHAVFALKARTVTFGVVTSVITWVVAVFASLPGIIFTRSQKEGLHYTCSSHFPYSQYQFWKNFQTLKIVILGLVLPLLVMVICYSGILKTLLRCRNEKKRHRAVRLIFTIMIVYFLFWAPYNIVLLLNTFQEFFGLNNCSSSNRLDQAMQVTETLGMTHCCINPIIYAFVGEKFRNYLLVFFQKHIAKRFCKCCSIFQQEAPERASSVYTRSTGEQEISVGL

[2] = target: T2, Cholecystokinin receptor type A (Homo sapiens, UniProt P32238); assay type: cell membranes, Membrane; conditions: 1321-n1; further: in other assays of this panel Not Active means under 50% inhibition at 10 µM
T2 sequence (P32238 whole entry): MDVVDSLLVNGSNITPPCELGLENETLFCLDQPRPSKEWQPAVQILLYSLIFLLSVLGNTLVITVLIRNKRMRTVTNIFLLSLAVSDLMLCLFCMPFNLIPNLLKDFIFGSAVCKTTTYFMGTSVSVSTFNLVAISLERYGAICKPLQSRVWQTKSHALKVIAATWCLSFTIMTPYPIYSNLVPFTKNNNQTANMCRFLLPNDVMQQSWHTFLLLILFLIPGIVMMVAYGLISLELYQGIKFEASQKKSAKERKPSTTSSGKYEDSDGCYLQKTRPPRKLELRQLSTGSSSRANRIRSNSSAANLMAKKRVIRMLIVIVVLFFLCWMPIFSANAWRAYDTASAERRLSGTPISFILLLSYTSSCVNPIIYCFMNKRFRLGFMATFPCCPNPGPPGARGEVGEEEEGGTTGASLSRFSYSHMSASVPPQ

Glucocorticoid receptor = target: T3, Glucocorticoid receptor (Homo sapiens, UniProt P04150); conditions: hela s3; further: in other assays of this panel Not Active means under 50% inhibition at 10 µM
T3 sequence (P04150 whole entry): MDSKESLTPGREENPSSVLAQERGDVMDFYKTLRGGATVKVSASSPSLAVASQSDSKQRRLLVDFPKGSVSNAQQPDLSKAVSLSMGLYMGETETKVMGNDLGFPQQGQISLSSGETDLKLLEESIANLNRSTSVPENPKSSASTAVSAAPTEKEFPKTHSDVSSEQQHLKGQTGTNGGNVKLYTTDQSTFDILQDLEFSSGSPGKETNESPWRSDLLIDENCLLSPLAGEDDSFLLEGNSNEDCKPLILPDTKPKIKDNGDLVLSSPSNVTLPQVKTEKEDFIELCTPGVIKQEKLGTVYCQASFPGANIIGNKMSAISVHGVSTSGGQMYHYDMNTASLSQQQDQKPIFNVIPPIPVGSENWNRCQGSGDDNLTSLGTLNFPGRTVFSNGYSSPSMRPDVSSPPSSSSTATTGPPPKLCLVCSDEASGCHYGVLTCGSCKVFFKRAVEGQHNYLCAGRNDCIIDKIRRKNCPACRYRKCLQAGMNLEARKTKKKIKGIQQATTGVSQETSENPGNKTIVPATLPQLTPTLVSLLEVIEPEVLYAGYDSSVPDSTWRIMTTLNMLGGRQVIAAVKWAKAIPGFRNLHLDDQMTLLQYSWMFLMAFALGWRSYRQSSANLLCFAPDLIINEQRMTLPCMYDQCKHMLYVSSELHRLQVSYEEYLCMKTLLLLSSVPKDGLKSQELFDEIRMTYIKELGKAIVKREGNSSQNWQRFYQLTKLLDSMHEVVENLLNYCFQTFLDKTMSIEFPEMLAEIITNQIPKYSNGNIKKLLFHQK

[3] = DRUGMATRIX: GABAA, Chloride Channel, TBOB radioligand binding (ligand: [3H] TBOB); assay type: cell membranes, Rattus norvegicus, Wistar, Cerebral cortex, Membrane; conditions: Not Active = under 50% inhibition at 10 µM
[4] = target: T4, Alpha-1B adrenergic receptor (Rattus norvegicus, UniProt P15823); assay: DRUGMATRIX: Alpha-1B adrenergic receptor radioligand binding (ligand: prazosin); assay type: cell membranes, Wistar, Liver, Membrane; conditions: Not Active = under 50% inhibition at 10 µM
T4 sequence (P15823 whole entry): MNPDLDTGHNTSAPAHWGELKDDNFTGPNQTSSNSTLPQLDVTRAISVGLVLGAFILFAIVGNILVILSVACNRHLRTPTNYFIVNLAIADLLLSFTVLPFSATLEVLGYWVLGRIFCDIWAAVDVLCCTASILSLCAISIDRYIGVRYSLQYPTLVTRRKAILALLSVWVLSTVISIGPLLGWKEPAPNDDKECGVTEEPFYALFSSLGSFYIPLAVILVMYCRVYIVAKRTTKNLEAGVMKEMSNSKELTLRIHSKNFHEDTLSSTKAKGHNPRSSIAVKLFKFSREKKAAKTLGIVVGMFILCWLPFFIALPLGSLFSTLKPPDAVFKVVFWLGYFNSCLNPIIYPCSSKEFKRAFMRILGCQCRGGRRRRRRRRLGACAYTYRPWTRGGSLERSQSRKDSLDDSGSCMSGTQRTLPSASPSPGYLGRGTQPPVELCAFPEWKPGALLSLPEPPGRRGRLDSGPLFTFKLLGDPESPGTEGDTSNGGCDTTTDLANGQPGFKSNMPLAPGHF

[5] = target: Tyrosine-protein kinase Fyn (Homo sapiens, UniProt P06241); assay: biochemical; assay type: cell-based, Insect cells; conditions: insect cells
Sequence of Tyrosine-protein kinase Fyn (P06241 whole entry): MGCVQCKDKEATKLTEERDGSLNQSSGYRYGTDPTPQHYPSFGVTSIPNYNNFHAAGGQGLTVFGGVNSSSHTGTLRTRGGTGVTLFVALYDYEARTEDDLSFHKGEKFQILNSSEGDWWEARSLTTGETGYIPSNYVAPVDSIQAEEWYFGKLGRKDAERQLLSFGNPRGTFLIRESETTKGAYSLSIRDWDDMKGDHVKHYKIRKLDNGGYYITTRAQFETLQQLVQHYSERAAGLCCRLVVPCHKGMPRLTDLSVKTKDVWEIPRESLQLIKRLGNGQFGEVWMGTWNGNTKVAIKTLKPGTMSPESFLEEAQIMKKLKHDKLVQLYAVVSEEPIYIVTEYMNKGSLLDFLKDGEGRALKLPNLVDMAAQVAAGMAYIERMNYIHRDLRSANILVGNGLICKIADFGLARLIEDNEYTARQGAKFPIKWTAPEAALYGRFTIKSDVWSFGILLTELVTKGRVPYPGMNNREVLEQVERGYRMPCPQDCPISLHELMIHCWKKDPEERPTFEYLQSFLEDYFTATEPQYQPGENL

| Compound | IC50 (Adenosine receptor A3) | IC50 [1] | IC50 [2] | IC50 (Glucocorticoid receptor) | IC50 [3] | Ki [3] | IC50 [4] | IC50 [5] | IC50 ([4]; read-out: IC50) [nM] | Ki ([4]; read-out: Ki) [nM] | Ki (Adenosine receptor A3) | Ki [1] | Ki [2] | Ki (Glucocorticoid receptor) | Ki [4] | Ki [5] |
| --- | --- | --- | --- | --- | --- | --- | --- | --- | --- | --- | --- | --- | --- | --- | --- | --- |
| COc1c2occc2cc2ccc(=O)oc12 [METHOXSALEN] | Not Active | Not Active | Not Active | Not Active | Not Active | Not Active | Not Active | Not Active |  |  |  |  |  |  |  |  |
| Nc1cc(N2CCCCC2)nc(N)[n+]1[O-] [MINOXIDIL] | Not Active | Not Active | Not Active | Not Active | Not Active | Not Active | Not Active | Not Active |  |  |  |  |  |  |  |  |
| CO[C@H]1/C=C/O[C@@]2(C)Oc3c(C)c(O)c4c(O)c(c(/C=N/N5CCN(C6CCCC6)CC5)c(O)c4c3C2=O)NC(=O)/C(C)=C\C=C\[C@H](C)[C@H](O)[C@@H](C)[C@@H](O)[C@@H](C)[C@H](OC(C)=O)[C@@H]1C [RIFAPENTINE] | Not Active | Not Active | Not Active | Not Active | Not Active | Not Active | Not Active | Not Active |  |  |  |  |  |  |  |  |
| CCCCOc1cc(CC2CNC(=O)N2)ccc1OC (configuration not stated) [RO-201724] | Not Active | Not Active | Not Active | Not Active | Not Active | Not Active | Not Active | Not Active |  |  |  |  |  |  |  |  |
| O=C(O)c1cn(-c2ccc(F)cc2)c2cc(N3CCNCC3)c(F)cc2c1=O [SARAFLOXACIN] | Not Active | Not Active | Not Active | Not Active | Not Active | Not Active | Not Active | Not Active |  |  |  |  |  |  |  |  |
| CC(C)NCC(O)c1ccc(NS(C)(=O)=O)cc1 (configuration not stated) [SOTALOL] | Not Active | Not Active | Not Active | Not Active | Not Active | Not Active | Not Active | Not Active |  |  |  |  |  |  |  |  |
| O=C1C(CC[S+]([O-])c2ccccc2)C(=O)N(c2ccccc2)N1c1ccccc1 (configuration not stated) [SULFINPYRAZONE] | Not Active | Not Active | Not Active | Not Active | Not Active | Not Active | Not Active | Not Active |  |  |  |  |  |  |  |  |
| NC(=O)N1C(=O)/C(=C(\O)c2cccs2)c2cc(Cl)ccc21 [TENIDAP] | Not Active | Not Active | Not Active | Not Active | Not Active | Not Active | Not Active | Not Active |  |  |  |  |  |  |  |  |
| COc1cc2nc(N3CCN(C(=O)C4CCCO4)CC3)nc(N)c2cc1OC (configuration not stated) [TERAZOSIN] | Not Active | Not Active | Not Active | Not Active | Not Active | Not Active |  | Not Active | 6.03 | 3.33 |  |  |  |  |  |  |
| CN(C/C=C/C#CC(C)(C)C)Cc1cccc2ccccc12 [TERBINAFINE] | Not Active | Not Active | Not Active | Not Active | Not Active | Not Active | Not Active | Not Active |  |  |  |  |  |  |  |  |
| CCCCNc1ccc(C(=O)OCCN(C)C)cc1 [TETRACAINE] | Not Active | Not Active | Not Active | Not Active | Not Active | Not Active | Not Active | Not Active |  |  |  |  |  |  |  |  |
| CS(=O)(=O)c1ccc([C@@H](O)[C@@H](CO)NC(=O)C(Cl)Cl)cc1 [THIAMPHENICOL] | Not Active | Not Active | Not Active | Not Active | Not Active | Not Active | Not Active | Not Active |  |  |  |  |  |  |  |  |
| CCN(CC)CCNC(=O)c1cc(S(C)(=O)=O)ccc1OC [TIAPRIDE] | Not Active | Not Active | Not Active | Not Active | Not Active | Not Active | Not Active | Not Active |  |  |  |  |  |  |  |  |
| NC1CCN(c2nc3c(cc2F)c(=O)c(C(=O)O)cn3-c2ccc(F)cc2F)C1 (configuration not stated) [TOSUFLOXACIN] | Not Active | Not Active | Not Active | Not Active | Not Active | Not Active | Not Active | Not Active |  |  |  |  |  |  |  |  |
| O=C(Nc1ccc(Br)cc1)c1cc(Br)cc(Br)c1O [TRIBROMSALAN] | Not Active | Not Active | Not Active | Not Active | Not Active | Not Active | Not Active | Not Active |  |  |  |  |  |  |  |  |
| CC(c1cc2ccccc2s1)N(O)C(N)=O (configuration not stated) [ZILEUTON] | Not Active | Not Active | Not Active | Not Active | Not Active | Not Active | Not Active | Not Active |  |  |  |  |  |  |  |  |
| MANGANESE CHLORIDE ANHYDROUS | Not Active | Not Active | Not Active | Not Active | Not Active | Not Active | Not Active | Not Active |  |  | Not Active | Not Active | Not Active | Not Active | Not Active | Not Active |
| SODIUM ORTHOVANAD | Not Active | Not Active | Not Active | Not Active | Not Active | Not Active | Not Active | Not Active |  |  | Not Active | Not Active | Not Active | Not Active | Not Active | Not Active |
